Reference: US12649733B2, “3,6-diamino-pyridazin-3-yl derivatives, pharmaceutical compositions containing them and their uses as pro-apoptotic agents” (LES LABORATOIRES SERVIER, priority 2019, dated 2026)
pIC50, pKi: −log10 of the molar value.

What was measured:
BCLXL [1] = target: T1, BCLXL (Homo sapiens, UniProt Q07817, V10N/V9A); experiment: AlphaLISA assay (BIM peptide displacement); format: binding; conditions: 20 pM protein, 1 nM peptide
Protocol: AlphaLISA assay measures an increase in alpha signal upon binding biotinylated GST(1-218)-(FACTOR_XA)-hs ? (2-209)(SEQ ID:02—GST UniProtKB® primary accession number P08515 and BCLXL UniProtKB® primary accession number Q07817-1) coupled to a Streptavidin labeled Alpha donor bead to N-terminally labeled peptide derived from BIM (Fluorescein-betaAla-Ahx-SEQID:05, wherein SEQ ID:05 is […]) coupled to an Anti-FTIC AlphaLISA acceptor bead.
GST(1-218)(FACTOR_XA)-hs ? (2-209) was biotinylated in 50 mM phosphate buffer using a 20 fold excess of EZ Link NHS-LC-Biotin (thermoFisher catalogue number 21336) overnight at 4° C.
The addition of a compound which binds competitively to the same site as the peptide will result in an decrease in the Alpha signal of the available donor bead-protein-peptide-acceptor bead complex due to displacement of the peptide.
An 11-point serial dilution of each compound was prepared in DMSO, the final buffer conditions were 10 mM 4-(2-hydroxyethyl)-1-piperazineethanesulfonic acid [HEPES], 150 mM NaCl, 0.05% Tween 20, pH 7.4 and 4% DMSO. The final protein concentration in the assay was 20 pM with the peptide present at 1 nM). Alpha beads were used at a final concentration of 5 ug/mL. The experiments were incubated for overnight at 23° C. after acceptor bead addition. Finally the donor bead is added and incubated for 2 hours at 23° C. before Alpha signal measured on a Biotek Synergy2 plate reader (Excitation 680 nm, emission 615 nm).

MOLT-4 cells = experiment: MOLT-4 cell viability, MTT assay; format: cell-based; conditions: Homo sapiens, MOLT-4, 48 h, 48 h exposure
Method in brief: (§1)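 Cells grown in RPMI 1640 with 10% heat-inactivated FBS at 37° C, 5% CO2, exposed 48 h to nine 3.16-fold serial compound dilutions in triplicate. MTT added for 4 h, SDS/HCl solubilisation overnight, absorbance at 540 nm; IC50 by four-parameter fit.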

BCLXL [2] = target: T1, BCLXL; experiment: Fluorescence polarisation assay (PUMA-based probe displacement); format: binding; further: 20 nM protein, 10 nM fluorescent probe
H146 cells = experiment: H146 cell viability, MTT assay; format: cell-based; conditions: Homo sapiens, NCI-H146, 48 h, 48 h exposure
Method in brief: as §1

T1 sequence (Q07817 with tags, fused parts or gaps V9A/V10N): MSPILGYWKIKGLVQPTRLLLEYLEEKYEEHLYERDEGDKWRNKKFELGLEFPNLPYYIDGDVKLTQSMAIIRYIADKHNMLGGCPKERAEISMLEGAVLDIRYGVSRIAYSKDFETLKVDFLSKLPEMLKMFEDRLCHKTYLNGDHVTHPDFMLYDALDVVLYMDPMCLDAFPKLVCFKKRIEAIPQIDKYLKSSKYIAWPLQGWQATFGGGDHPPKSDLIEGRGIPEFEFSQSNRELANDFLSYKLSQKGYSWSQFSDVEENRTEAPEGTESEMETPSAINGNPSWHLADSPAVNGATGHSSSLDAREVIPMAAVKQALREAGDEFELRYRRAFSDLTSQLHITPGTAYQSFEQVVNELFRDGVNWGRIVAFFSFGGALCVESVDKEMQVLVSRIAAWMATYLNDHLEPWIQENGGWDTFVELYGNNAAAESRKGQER

SMILES	pIC50 (BCLXL [1])	pIC50 (MOLT-4 cells)	pKi (BCLXL [2])	pIC50 (H146 cells)
Cc1cc(N(C)c2nc(C(=O)O)c(CCCOc3ccccc3)s2)nnc1Nc1nc2ccccc2s1 [Example 63, 2-({6-[(1,3-Benzothiazol-2-yl)amino]-5-methylpyridazin-3-yl}(methyl)amino)-5-(3-phenoxypropyl)-1,3-thiazole-4-carboxylic acid]	10.00	7.07	> 9.00	6.69
COCCCN(c1cc(C)c(Nc2nc3ccccc3s2)nn1)c1nc(C(=O)O)c(CCCOc2ccccc2)s1 [Example 65, 2-{[6-[(1,3-Benzothiazol-2-yl)amino]-5-methylpyridazin-3-yl}(3-methoxypropyl)amino)-5-(3-phenoxypropyl)-1,3-thiazole-4-carboxylic acid]	9.00	6.63	> 9.00	6.06
Cc1cc(N(C)c2nc(C(=O)O)c(C3CCN(C(=O)c4ccccc4)CC3)s2)nnc1Nc1nc2ccccc2s1 [Example 89, 5-(1-Benzoylpiperidin-4-yl)-2-({6-[(1,3-benzothiazol-2-yl)amino]-5-methylpyridazin-3-yl}(methyl)amino)-1,3-thiazole-4-carboxylic acid]	6.82	4.88	6.80	< 4.82
Cc1cc(N(C)c2ccc(-c3cnn(CC45CC6CC(CC(C6)C4)C5)c3C)c(C(=O)O)n2)nnc1Nc1nc2ccccc2s1 [Example 90, 3-{1-[(Adamantan-1-yl)methyl]-5-methyl-1H-pyrazol-4-yl}-6-({6-[(1,3-benzothiazol-2-yl)amino]-5-methylpyridazin-3-yl}(methyl)amino)pyridine-2-carboxylic acid]	10.64	7.63	> 9.00	6.70
Cc1cc(N(C)c2nc(C(=O)O)c(C3CCN(c4ccccc4)CC3)s2)nnc1Nc1nc2ccccc2s1 [Example 91, 2-({6-[(1,3-Benzothiazol-2-yl)amino]-5-methylpyridazin-3-yl}(methyl)amino)-5-(1-phenylpiperidin-4-yl)-1,3-thiazole-4-carboxylic acid]	8.28	5.95	8.19	5.27
Cc1cc(N(C)c2nc(C(=O)O)c(C3CCN(S(=O)(=O)c4ccccc4)CC3)s2)nnc1Nc1nc2ccccc2s1 [Example 92, 5-[1-(Benzenesulfonyl)piperidin-4-yl]-2-({6-[(1,3-benzothiazol-2-yl)amino]-5-methylpyridazin-3-yl}(methyl)amino)-1,3-thiazole-4-carboxylic acid]	7.34	< 4.82	7.17	< 4.82
Cc1cc(N(C)c2nc(C(=O)O)c(C3CCN(S(C)(=O)=O)CC3)s2)nnc1Nc1nc2ccccc2s1 [Example 94, 2-({6-[(1,3-Benzothiazol-2-yl)amino]-5-methylpyridazin-3-yl}(methyl)amino)-5-(1-methanesulfonylpiperidin-4-yl)-1,3-thiazole-4-carboxylic acid]	7.29	≤ 5.00	7.17	5.39
Cc1cc(N(C)c2nc(C(=O)O)c(C3CCN(S(=O)(=O)Cc4ccccc4)CC3)s2)nnc1Nc1nc2ccccc2s1 [Example 95, 2-({6-[(1,3-Benzothiazol-2-yl)amino]-5-methylpyridazin-3-yl}(methyl)amino)-5-(1-phenylmethanesulfonylpiperidin-4-yl)-1,3-thiazole-4-carboxylic acid]	7.66	5.30	7.62	5.03

Second part, the compound after the results:

pIC50 (BCLXL [1])	pIC50 (MOLT-4 cells)	pKi (BCLXL [2])	pIC50 (H146 cells)	SMILES
10.60	8.29	8.85	7.45	COCCCN(c1cc(C)c(Nc2nc3ccccc3s2)nn1)c1nc(C(=O)O)c(CCCOc2ccc(C#CCN(C)C)cc2F)s1 [Example 54, 2-({6-[(1,3-Benzothiazol-2-yl)amino]-5-methylpyridazin-3-yl}(3-methoxypropyl)amino)-5-(3-{4-[3-(dimethylamino)prop-1-yn-1-yl]-2-fluorophenoxy}propyl)-1,3-thiazole-4-carboxylic acid]
9.85	7.12	> 9.00	6.57	Cc1cc(N(C)c2nc(C(=O)O)c(CCCOc3ccccc3F)s2)nnc1Nc1nc2ccccc2s1 [Example 59, 2-({6-[(1,3-Benzothiazol-2-yl)amino]-5-methylpyridazin-3-yl}(methyl)amino)-5-[3-(2-fluorophenoxy)propyl]-1,3-thiazole-4-carboxylic acid]
9.02	5.56	8.82	5.24	COCCCc1sc(N(C)c2cc(C)c(Nc3nc4ccccc4s3)nn2)nc1C(=O)O [Example 60, 2-({6-[(1,3-Benzothiazol-2-yl)amino]-5-methylpyridazin-3-yl}(methyl)amino)-5-(3-methoxypropyl)-1,3-thiazole-4-carboxylic acid]
7.92	< 4.82	> 9.00	< 4.82	Cc1cc(N(CCC(O)CO)c2nc(C(=O)O)cs2)nnc1Nc1nc2ccccc2s1 (stereo not shown) [Example 85, 2-[[6-(1,3-Benzothiazol-2-ylamino)-5-methyl-pyridazin-3-yl]-(3,4-dihydroxybutyl)amino]thiazole-4-carboxylic acid]
8.19	5.03	8.17	< 4.82	COCC(O)CCN(c1cc(C)c(Nc2nc3ccccc3s2)nn1)c1nc(C(=O)O)cs1 (stereo not shown) [Example 93, 2-[[6-(1,3-Benzothiazol-2-ylamino)-5-methyl-pyridazin-3-yl]-(3-hydroxy-4-methoxy-butyl)amino]thiazole-4-carboxylic acid]
8.74	< 4.82	8.64	< 4.82	COC(CO)CCN(c1cc(C)c(Nc2nc3ccccc3s2)nn1)c1nc(C(=O)O)cs1 (stereo not shown) [Example 98, 2-[[6-(1,3-Benzothiazol-2-ylamino)-5-methyl-pyridazin-3-yl]-(4-hydroxy-3-methoxy-butyl)amino]thiazole-4-carboxylic acid]
11.66	6.32	> 9.00	5.92	Cc1cc(N(C)c2nc(C(=O)O)c(CCCOc3ccc(C#CC[N+](C)(C)CCCS(=O)(=O)[O-])cc3F)s2)nnc1Nc1nc2ccccc2s1 [Example 101, 3-[3-[4-[3-[2-[[6-(1,3-Benzothiazol-2-ylamino)-5-methyl-pyridazin-3-yl]-methyl-amino]-4-carboxy-thiazol-5-yl]propoxy]-3-fluoro-phenyl]prop-2-ynyl-dimethyl-ammonio]propane-1-sulfonate]
11.18	7.33	> 9.00	7.65	CNCC#Cc1ccc(OCCCc2sc(N(CCC(O)CO)c3cc(C)c(Nc4nc5ccccc5s4)nn3)nc2C(=O)O)c(F)c1 (stereo not shown) [Example 108, 2-[[6-(1,3-Benzothiazol-2-ylamino)-5-methyl-pyridazin-3-yl]-(3,4-dihydroxybutyl)amino]-5-[3-[2-fluoro-4-[3-(methylamino)prop-1-ynyl]phenoxy]propyl]thiazole-4-carboxylic acid]
11.22	7.01	> 9.00	7.67	CNCC#Cc1ccc(OCCCc2sc(N(CCCC(O)CO)c3cc(C)c(Nc4nc5ccccc5s4)nn3)nc2C(=O)O)c(F)c1 (stereo not shown) [Example 119, 2-[[6-(1,3-Benzothiazol-2-ylamino)-5-methyl-pyridazin-3-yl]-(4,5-dihydroxypentyl)amino]-5-[3-[2-fluoro-4-[3-(methylamino)prop-1-ynyl]phenoxy]propyl]thiazole-4-carboxylic acid]
11.40	7.78	> 9.00	8.20	Cc1cc(N(CCC(O)CO)c2nc(C(=O)O)c(CCCOc3ccc(C#CCN(C)C)cc3F)s2)nnc1Nc1nc2ccccc2s1 (stereo not shown) [Example 123, 2-[[6-(1,3-Benzothiazol-2-ylamino)-5-methyl-pyridazin-3-yl]-(3,4-dihydroxybutyl)amino]-5-[3-[4-[3-(dimethylamino)prop-1-ynyl]-2-fluoro-phenoxy]propyl]thiazole-4-carboxylic acid]
11.18	7.95	> 9.00	8.04	CNCC#Cc1ccc(OCCCc2sc(N(CCCO)c3cc(C)c(Nc4nc5ccccc5s4)nn3)nc2C(=O)O)c(F)c1 [Example 127, 2-[[6-(1,3-Benzothiazol-2-ylamino)-5-methyl-pyridazin-3-yl]-(3-hydroxypropyl)amino]-5-[3-[2-fluoro-4-[3-(methylamino)prop-1-ynyl]phenoxy]propyl]thiazole-4-carboxylic acid]
